Converted amounts (≈) assume the structure as drawn.
Legend:
[1] = Human Liver Microsomal Stability (Test C); type: in vitro ADME; settings: human, liver microsomes
In short: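 CLint (μl/min/mg protein) derived from compound depletion in human liver microsomes following a published standardized early-DMPK protocol; replicate determinations given as arithmetic mean.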

[2] = Human Hepatocyte Stability (Test D); type: in vitro ADME; settings: human, cryopreserved pooled human hepatocytes (LiverPool 10-Donor), geometric mean if run multiple times
Method: Human Hepatocyte Stability (Test D)
The metabolic stability of compounds in human hepatocytes was assessed using the following protocol:
1. Prepare 10 mM stock solutions of compound and control compounds in appropriate solvent (DMSO). Place incubation medium (L-15 Medium) in a 37° C. water bath, and allow warming for at least 15 minutes prior to use.
2. Add 80 μL of acetonitrile to each well of the 96-well deep well plate (“Quenching plate”).
3. In a new 96-well plate, dilute the 10 mM test compounds and the control compounds to 100 μM by combining 198 μL of acetonitrile and 2 μL of 10 mM stock solution.
4. Remove a vial of cryopreserved (less than −150° C.) human hepatocytes (LiverPool™ 10-Donor Human hepatocytes obtained from Bioreclamation IVT (Product No. S01205)) from storage, ensuring that vials remain at cryogenic temperatures until thawing process ensues. As quickly as possible, thaw the cells by placing the vial in a 37° C. water bath and gently shaking the vials. Vials should remain in water bath until all ice crystals have dissolved and are no longer visible. After thawing is complete, spray vial with 70% ethanol, transfer the vial to a bio-safety cabinet.
5. Open the vial and pour the contents into the 50 mL conical tube containing thawing medium. Place the 50 mL conical tube into a centrifuge and spin at 100 g for 10 minutes (room temperature).
6. Using Cellometer® Vision, count cells and determine the viable cell density. Cells with poor viability (<80% viability) are not acceptable for use.
7. Transfer 247.5 μL of hepatocytes into each well of a 96-well cell incubation plate. Place the plate on Eppendorf Thermomixer Comfort plate shaker to allow the hepatocytes to warm for 10 minutes.
8. Add 2.5 μL of 100 μM test compound or control compounds into an incubation well containing cells to initiate the reaction.
9. Incubate the plate at 37° C. and 900 rpm on an Eppendorf Thermomixer Comfort plate shaker.
10. Centrifuge the quenching plates for 20 minutes at 4,000 rpm. Transfer 30 μL of supernatant of each compound into a 96-well analysis plate. 4 compounds are pooled together into one cassette. Then dilute the pooled sample by adding of 180 μl of pure water. All incubations are performed in singlicate.
All calculations were carried out using Microsoft Excel. Peak areas were determined from extracted ion chromatograms. In vitro intrinsic clearance (in vitro Clint, in μL/min/10^6 cells) of parent compound was determined by regression analysis of the Ln percent parent disappearance vs. time curve. The in vitro intrinsic clearance (in vitro Clint, in μL/min/10^6 cells) reported in Table 36, and was determined from the slope value using the following equation: in vitro Clint=kV/N
V=incubation volume (0.25 mL);
N=number of hepatocytes per well (0.25×10^6 cells)
Where the assay was run multiple times for the same compound, the geometric mean is reported.

[3] = Rat Hepatocyte Stability (Test E); type: in vitro ADME; settings: rat, hepatocytes, geometric mean if run multiple times
In short: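 Intrinsic clearance in rat hepatocytes, expressed as μl/min/10^6 cells, following the literature integrated DMPK panel method. Repeat determinations combined as geometric mean.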

Solubility (Test F) = type: physicochemical; settings: arithmetic mean if run multiple times
Method: The assay was conducted according to the Solubility Assay described in pages 164-167 of Wernevik, J. et al., “A Fully Integrated Assay Panel for Early Drug Metabolism and Pharmacokinetics Profiling”, Assay and Drug Development Technologies, 2020, 18(4), 157-179. Data are reported in Table 36 as solubility ([…]. Where the assay was run multiple times for the same compound, the arithmetic mean is reported.

human RXFP1 = molecular target: T1, human RXFP1 (Homo sapiens, UniProt Q9HBX9); assay: RXFP1 Hu cAMP (Test A); type: cell-based; set-up: expressed in transfected cells; host or cells: Jump-In T-REx CHO-K1 cells (ThermoFisher), induced with 10 ng/ml doxycycline for 24 h; settings: RXFP1 Hu cAMP; for EC50: read-out: Test A EC50
T1 sequence (Q9HBX9 1-757): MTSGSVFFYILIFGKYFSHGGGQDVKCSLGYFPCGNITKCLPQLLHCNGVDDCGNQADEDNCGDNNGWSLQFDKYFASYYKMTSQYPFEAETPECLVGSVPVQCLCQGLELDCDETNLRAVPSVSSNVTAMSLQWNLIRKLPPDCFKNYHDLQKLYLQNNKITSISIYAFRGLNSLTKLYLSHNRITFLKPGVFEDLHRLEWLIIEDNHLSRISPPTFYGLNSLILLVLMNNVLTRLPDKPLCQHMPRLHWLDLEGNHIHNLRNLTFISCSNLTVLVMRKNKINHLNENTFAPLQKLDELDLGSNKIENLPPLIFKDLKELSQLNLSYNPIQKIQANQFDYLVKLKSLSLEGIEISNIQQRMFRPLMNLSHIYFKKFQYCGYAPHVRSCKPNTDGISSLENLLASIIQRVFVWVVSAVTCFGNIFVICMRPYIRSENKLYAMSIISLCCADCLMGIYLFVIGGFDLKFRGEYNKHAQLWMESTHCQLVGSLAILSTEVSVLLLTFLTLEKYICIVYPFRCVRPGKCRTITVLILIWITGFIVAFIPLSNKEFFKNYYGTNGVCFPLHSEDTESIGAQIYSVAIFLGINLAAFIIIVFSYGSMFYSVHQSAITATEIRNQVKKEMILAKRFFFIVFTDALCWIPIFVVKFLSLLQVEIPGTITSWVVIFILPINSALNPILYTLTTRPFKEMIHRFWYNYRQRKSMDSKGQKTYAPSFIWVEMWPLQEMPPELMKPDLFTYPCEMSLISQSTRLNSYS
In short: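 Read-out is HTRF signal, inversely proportional to cAMP, converted to cAMP amount by standard curve. Stimulation occurred in inducible CHO-K1 cells expressing the human receptor with phosphodiesterases blocked by 0.5 mM IBMX.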

[4] = Human Plasma Protein Binding (Test B); type: in vitro ADME; settings: fraction unbound (fu)
In short: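 Values given as % free (fu) in human plasma, using the method of Wernevik et al. (2020). For compounds tested more than once, the arithmetic mean is given.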

Row | SMILES | microsomal CLint [1] [µL/min/mg] | hepatocyte CLint at 1 µM [2] [µL/min/1e6 cells] | hepatocyte CLint [3] [µL/min/1e6 cells] | solubility (Solubility (Test F)) [µM] | Test A Sinf (human RXFP1) [%] | EC50 (human RXFP1) [nM] | Test B Human Plasma Protein Binding (% free) [4] [% free]
1 | COc1cc(F)c(-c2cccc(C[C@@H](C(=O)O)N(C)C)c2)cc1C(=O)N[C@@H]1[C@H]2CC[C@H](C2)[C@@H]1C(=O)Nc1cccc(S(=O)(=O)C(F)(F)F)c1 (racemic) [Example 293] | 27 | 8.4 | 41 | 21 (≈ 14.8 µg/mL) | 118 | 390 | –
2 | CCC(CC)CNC(=O)[C@H]1[C@@H]2CC[C@@H](C2)[C@H]1NC(=O)c1cc(O[C@H]2CC[C@@H](C(=O)O)CC2)c(F)cc1OC [Example 197, (1S,4s)-4-(5-(((1S,2R,3S,4R)-3-((2-ethylbutyl)carbamoyl)bicyclo[2.2.1]heptan-2-yl)carbamoyl)-2-fluoro-4-methoxyphenoxy)cyclohexane-1-carboxylic acid] | 45 | 12 | 28 | 1000 (≈ 533 µg/mL) | 106 | 1400 | –
3 | COc1cc(F)c(O[C@H]2CC[C@@H](C(=O)O)CC2)cc1C(=O)N[C@@H]1[C@H]2CC[C@H](C2)[C@@H]1C(=O)N[C@@H](C)C(C)(C)C [Example 199] | 26 | 2.6 | 20 | 1000 (≈ 533 µg/mL) | 100 | 21000 | –
4 | COc1cc(F)c(O[C@H]2CC[C@@](C)(C(=O)O)CC2)cc1C(=O)N[C@H]1[C@@H]2CC[C@@H](C2)[C@H]1C(=O)Nc1ccc(F)c(S(F)(F)(F)(F)F)c1 [Example 206, (1R,4s)-4-(2-Fluoro-5-(((1R,2S,3R,4S)-3-((4-fluoro-3-(pentafluoro-λ6-sulfaneyl)phenyl)carbamoyl)bicyclo[2.2.1]heptan-2-yl)carbamoyl)-4-methoxyphenoxy)-1-methylcyclohexane-1-carboxylic acid] | 42 | 49 | 14 | 35 (≈ 23.9 µg/mL) | 99 | > 150 | –
5 | COc1cc(F)c(O[C@H]2CC[C@@H](C(=O)O)CC2)cc1C(=O)N[C@@H]1[C@@H]2C[C@@H]([C@H]3OCO[C@@H]23)[C@@H]1C(=O)Nc1cccc(S(=O)(=O)C(F)(F)F)c1 [Example 461, (1S,4s)-4-(2-Fluoro-4-methoxy-5-(((3aS,4S,5R,6S,7R,7aR)-6-((3-((trifluoromethyl)sulfonyl)phenyl)carbamoyl)hexahydro-4,7-methanobenzo[d][1,3]dioxol-5-yl)carbamoyl)phenoxy)cyclohexane-1-carboxylic acid] | 7.5 | 2.9 | 7.4 | 980 (≈ 687 µg/mL) | 100 | 190 | –
6 | COc1cc(F)c(O[C@H]2CC[C@@H](C(=O)O)CC2)cc1C(=O)N[C@@H]1[C@H]2CC[C@H](C2)[C@@H]1C(=O)Nc1ccc(F)c(OC(F)(F)F)c1 [Example 21] | 39 | – | 28 | 850 (≈ 533 µg/mL) | 110 | – | 0.55

Other lines, results leading:

Row | microsomal CLint [1] [µL/min/mg] | hepatocyte CLint at 1 µM [2] [µL/min/1e6 cells] | hepatocyte CLint [3] [µL/min/1e6 cells] | solubility (Solubility (Test F)) [µM] | Test A Sinf (human RXFP1) [%] | EC50 (human RXFP1) [nM] | Test B Human Plasma Protein Binding (% free) [4] [% free] | SMILES
7 | 64 | 15 | 46 | 590 (≈ 380 µg/mL) | 109 | 18 | – | COc1cc(F)c(O[C@H]2CC[C@@](C)(C(=O)O)CC2)cc1C(=O)N[C@@H]1CCC[C@@H]1C(=O)Nc1cccc(S(=O)(=O)C(F)(F)F)c1 [Example 351]
8 | < 3 | – | 24 | 890 (≈ 487 µg/mL) | 97 | 440 | 26 | COc1cc(C#N)c(O[C@H]2CC[C@@](C)(C(=O)O)CC2)cc1C(=O)N[C@@H]1[C@H]2CC[C@H](C2)[C@@H]1C(=O)NCC(C)(F)F [Example 96]
9 | 7.5 | – | 31 | 980 (≈ 556 µg/mL) | – | > 5000 | 28 | COCC1(CNC(=O)[C@H]2[C@@H]3CC[C@@H](C3)[C@H]2NC(=O)c2cc(O[C@H]3CC[C@@](C)(C(=O)O)CC3)c(C#N)cc2OC)CC1 [Example 79]
10 | 8.4 | – | 32 | 920 (≈ 524 µg/mL) | 122 | 140 | 12 | COc1cc(C#N)c(O[C@H]2CC[C@@](C)(C(=O)O)CC2)cc1C(=O)N[C@@H]1[C@H]2CC[C@H](C2)[C@@H]1C(=O)NCC1(F)CCCC1 [Example 92]
11 | 40 | – | 26 | 610 (≈ 338 µg/mL) | 124 | 33 | 4.4 | CCC(CC)CNC(=O)[C@H]1[C@@H]2CC[C@@H](C2)[C@H]1NC(=O)c1cc(O[C@H]2CC[C@@](C)(C(=O)O)CC2)c(C#N)cc1OC [Example 88]
12 | 8.9 | – | 21 | 820 (≈ 435 µg/mL) | 114 | > 5500 | 8 | COc1cc(F)c(O[C@H]2CC[C@@](C)(C(=O)O)CC2)cc1C(=O)N[C@@H]1[C@H]2CC[C@H](C2)[C@@H]1C(=O)NCC1(C)CC1 [Example 41]
13 | < 3 | – | 17 | 980 (≈ 512 µg/mL) | 105 | 12000 | 21 | COc1cc(F)c(O[C@H]2CC[C@@](C)(C(=O)O)CC2)cc1C(=O)N[C@@H]1CCC[C@@H]1C(=O)NCC1(CF)CC1 [Example 56, (1S,4s)-4-(2-Fluoro-5-(((1R,2S)-2-(((1-(fluoromethyl)cyclopropyl)methyl)carbamoyl)cyclopentyl)carbamoyl)-4-methoxyphenoxy)-1-methylcyclohexane-1-carboxylic acid]

From US11667602B2, “Compounds and their use” (AstraZeneca AB, priority 2020, dated 2023)
